Source: US20010005714A1, “AMPHIPATHIC MOLECULES AS CHOLESTEROL AND OTHER LIPID UPTAKE INHIBITORS” (priority 1996, published 2001)

What was measured:
[1] = tested on: small intestine of Sprague-Dawly rats; assay: In vivo cholesterol absorption in the small intestine of rats; settings: ApoA-1 added to the diet
Excerpt: The biological relevance of the inhibitory effect observed in vitro is confirmed by an in vivo experiment showing that cholesterol absorption in the small intestine of Sprague-Dawly rats can be inhibited by the amphipathic principle by more than 80%. ApoA-1 added to the diet was used as the inhibitor, because this protein could be purified from human serum in sufficient quantity. Bases or the experimental evidence presented we ppropose that the inhibitory effect on cholesterol uptake is not restricted to particular amphipathic molecules. It is likely that the chemical nature of the amphipathic compound is of secondary importance and that the geometry and the polarity of the compound are the decisive determinants. The results presented here have important implications since amphipathic molecules belonging to any class of biological compounds such as lipids, proteins or carbohydrates might inhibit cholesterol uptake by the brush border membrane.

[2] = tested on: brush border membrane vesicles (BBMV); assay: IC50 of cholesteryl oleate uptake at the brush border membrane (Example 6); format: biochemical, rabbit; settings: donor 0.1 mg total lipid/ml, acceptor 2 mg protein/ml; 20 min at 25° C.
Method: An appropriate amount of inhibitor dissolved in 84.5 μl buffer (0.05 M Tris pH 7.4, 0.15 M NaCl) is mixed in an Eppendorf tube at time zero with 5 μl of a dispersion of donor and 10.5 μl of a dispersion of acceptor (i.e. brush border membrane vesicles (BBMV)) in the same buffer. The final concentration of the donor vesicles was 0.1 mg total lipid/ml, that of the acceptor was 2 mg protein/ml. The resulting mixture was incubated for 20 min at 25° C., and the reaction was stopped by adding 60 μl of the incubation medium to 120 μl ice-cold bufferin an airfuge tube. The diluted dispersion was immediately centrifuiaed in the airfuge at […] for 2 min. at 4° C. to separate donor vesicles from BBMV. Two 60 μl aliquots of the donor (=supernatant) were counted in a Beckman LS-7500 liquid scintillating counter to determine the radioactivity remaining in tbe donor.
Small unilamellar egg phosphatidycholine (PC) vesicles containing 1 mol % of cholesterol oleate and a trace amount of ^3H-cholesterol oleyl ether were made by dissolving the appropriate amounts of the lipids in CHCl3/CH3OH, (2:1, by vol.), taking the solution to dryness on a rotary evaporator and drying the residue in vacuo. The dried lipid film was dispersed in the appropriate volume of buffer by hand-shaking. The lipid dispersion was subjected to tip sonication as described in Brunner et al, J. Biol. Chem. 253 7538-7546 (1978). The resulting donor dispersion in buffer was centrifuged in the airfuge at 100000 g for 2 min at […]. Only the top 80% of the donor dispersion after centrifugation was used in the lipid uptake experiment.
BBMV were prepared from frozen rabbit small intestine according to Hauser et al (Biochim. Biophys. Acta 602 567-577 (1980)). Prior to use in the uptake experiment determining IC50 values the BBMV were washed to remove any free protein liberated from the BBM. To this end the BBMV dispersion was diluted with buffer 1:1 in an airfuge tube, and the diluted dispersion was centrifuged in the airfuga at 100000 g for 2 min at […]. The supernatant was is carefully decanted, the pellet was resuspended in buffer to the original volume of the BBMV dispersion, and the dispersion was homogenized. […]

[3] = Denaturation by 10% TCA or boiling/chilling: protein remaining in supernatant; format: physicochemical
Excerpt: Since the characterisation of sheep apo A-1 has not been reported yet, the physical characteristics of human and rabbit apo A-1 are reported for comparison (Chapman, Academic Press, Inc. San Diego, New York, Boston, London, Sydney, Tokyo. Toronto 70-143 1986)). Fr.28-PBE94 was subjected to N-terminal amino acid analysis. The first 29 amino acids of fr.28-PBE94 were 79.3% identical with rat apo A-1, 69.0% with rabbit apo A-1, 86.2% with bovine apo A-1 and 65.0% with human apo A-1. Fr.28-PBE94 cross-reacted with mouse monoclonal anti-human apo A-1 antibodies in Western blotting experiments. […] This is the floating density of high-density lipoproteins. After subjecting fr.28-PBE94 to the guanidine HCl treatment according to Nichols et al. (Nichols et al., Biochimica et Biophysica Acta 446 226-239 (1976)), fr.28-PBE94 was delipidated, showing the same behaviour as human apo A-1. […] Denatured proteins were removed by centrifugation, and protein and inhibitory activity remaining in the supernatant were determined (Table 4).

[4] = taken from Chapman (1986), for comparison; cited from earlier work
[5] = tested on: rabbit BBMVs; assay: Sterol uptake inhibition using mixed bile salt micelles as donors; format: biochemical; settings: 1.56 μM human apo A-1 or 1.98 μM fr.28-PBE94; 5 mM taurocholate, 0.6 mM oleic acid, 2 μM cholesterol; 10 min at 25° C.
Method: Since bile salt micelles are the most important lipid carriers in the small intestine, it is relevant to measure sterol uptake inhibition using mixed bile salt micelles as the donor. Donor micelles made of 50 mM taurocholate, 6 mM oleic acid and 20 μM radiolabelled cholesterol were prepared as follows: the lipids were mixed at these concentrations in 2:1 chloroform:methanol and the organic solvent was removed by rotary evaporation. The resulting lipid film was dried under high vacuum for at least 1 hour. The dried film was dispersed in the appropriate amount of Tris/NaCl to yield the desired micellar concentration. Acceptor rabbit BBMVs, prepared as described in Example 2, were mixed with either 1.56 μM human apo A-1 or 1.98 μM fr.28-PBE94. Donor mixed micelles were added to the acceptor/inhibitor dispersion to a final concentration of 5 mM taurocholate, 0.6 mM oleic acid and 2 μM radiolabelled cholesterol and the mixture incubated for 10 min at 25° C. […] Radioactivities in both pellet and supernatant were measured and results evaluated as described in Example 2; incubation with apo A-1 yielded 12% of the inhibitory activity measured at the same inhibitor concentration using SUVs as donor, and incubation with fr.28-PBE94 yielded 23% of the inhibitory activity measured at the same inhibitor concentration using SUVs as donor.

[6] = tested on: rabbit BBMV; assay: Dose response of cholesteryl oleate uptake from egg PC SUVs by rabbit BBMV (FIG. 4B); format: biochemical; settings: donor 0.05 mg/ml total lipid, acceptor 1.7 mg protein/ml, 20 min at 25° C., curve fits of FIG. 4B
Method: Small unilamellar vesicles of egg phosphatidylcholine containing 1 mol % cholesteryl oleate and a trace amount of (1,2-^3H2 (N)]-cholesteryl oleyl ether (37 Ci/mmol, from Amersham, UK) as the donor were made as described in Example 1 and BBMVs as the acceptor were prepared from rabbit small intestine (see Example 1). Donor and acceptor both dispersed in Tris/NaCl buffer (0.05 M Tris HCl pH 7.4, 0.15 M NaCl, 0.02% NaN3) and a solution of human apo A-1 or sheep HDL in the same buffer were mixed at time zero (total volume: 0.1 ml) so that the final concentrations of donor and acceptor were 0.05 mg/ml total lipid and 1.7 mg protein/ml, respectively. After incubation of the suspension of donor and acceptor in the presence of inhibitor for 20 min. at 25° C., the reaction was stopped by dilution with 2 vol. of Tris/NaCl buffer. Donor and acceptor were separated by centrifugation in the airfuge at 115,000 g for 2 min. at […]., and the radioactivities in the supernatant containing donor vesicles and in the pellet containing BBMVs were determined in a BECKMAN™ LS 7500 scintillation counter. […]
Experimental conditions were as described for FIG. 4A. The cholesterol absorption activity of BBMVs measured in the absence of inhibition was taken as 100% and the loss in activity observed in the presence of inhibitor is expressed as %. […]

Q: What does the source list for “human apo A-1: human apolipoprotein A-1, prepared from human HDL by delipidation and ion exchange chromatography”?
A: inhibition of cholesterol absorption in the small intestine [1]: more than 80%; IC50 [2]: 0.5 ± 0.1 µM; IC50 (μg/mL) of cholesteryl oleate uptake at the brush border membrane [2]: 14 ± 3 µg/mL; protein (%) remaining in the supernatant ([3]; after TCA precipitation (10% TCA)): 0%; protein (%) remaining in the supernatant ([3]; after boiling/chilling (4 cycles, 5 min each)): 27%; isoelectric point [4]: 5.52; inhibitory activity with mixed bile salt micelles as donor, as % of that measured at the same inhibitor concentration using SUVs as donor [5]: 12%; IC-50 [6]: 25 µg/mL
